In US20230000870A1, “METHODS OF TREATING CANCER IN BIOMARKER-IDENTIFIED PATIENTS WITH INHIBITORS OF CYCLIN-DEPENDENT KINASE 7 (CDK7)” (Syros Pharmaceuticals, Inc., priority 2019, published 2023):
pIC50: −log10 of the molar value.

How the values were obtained:
[1] = molecular target: CDK7/Cyclin H/MAT1 complex (Homo sapiens, UniProt P50613); test: CDK7 kinase inhibition assay (Caliper/LabChip EZ Reader); format: biochemical; details: CDK7/Cyclin H/MAT1 6 nM, ATP 2 mM, 35 min at 27° C.
Procedure: (§1) Compounds of the invention were assayed for inhibition of CDK7, CDK9, CDK12, and CDK2 activity at Biortus Biosciences (Jiangyin, Jiangsu Province, P.R. of China) using kinase assays for each CDK developed with a Caliper/LabChip EZ Reader (Perkin Elmer, Waltham, Mass.).
(§2) Furthermore, the CDK9 inhibition assay used CDK9/Cyclin T1 complex (8 nM) and “5-FAM-CDK9tide” peptide substrate (2 μM, synthesized fluorophore-labeled peptide with the following sequence: 5-FAM-GSRTPMY-NH2 where 5-FAM is defined above and NH2 signifies a C-terminal amide) with 10 mM MgCl2 in the buffer composition listed above. The CDK12 inhibition assay used CDK12 (aa686-1082)/Cyclin K complex (50 nM) and “5-FAM-CDK9tide” (2 μM) as defined above, with 2 mM MgCl2 in the buffer composition above. Additionally, the CDK2 inhibition assay used CDK2/Cyclin E1 complex (0.5 nM) and “5-FAM-CDK7tide” (2 μM) as defined above, with 2 mM MgCl2 in the buffer composition listed above.
(§3) The incubation period at 27° C. for each CDK inhibition assay was chosen such that the fraction of phosphorylated peptide product produced in each assay, relative to the total peptide concentration, was approximately 20% (±5%) for the uninhibited kinase (35 min. for CDK7, 35 min. for CDK2, 3 hr. for CDK12, 15 min. for CDK9).

[2] = molecular target: CDK9/Cyclin T1 complex (Homo sapiens, UniProt P50750); test: CDK9 kinase inhibition assay (Caliper/LabChip EZ Reader); format: biochemical; details: CDK9/Cyclin T1 8 nM, ATP 2 mM, 15 min at 27° C.
Procedure: as §1, §2, §3

[3] = molecular target: T1, CDK12 (aa686-1082)/Cyclin K complex (Homo sapiens, UniProt Q9NYV4); test: CDK12 kinase inhibition assay (Caliper/LabChip EZ Reader); format: biochemical; details: CDK12 (aa686-1082)/Cyclin K 50 nM, ATP 2 mM, 3 hr at 27° C.
T1 construct: CDK12 (aa686-1082)/Cyclin K complex
Procedure: as §1, §2, §3

[4] = molecular target: CDK2/Cyclin E1 complex (Homo sapiens, UniProt P24941); test: CDK2 kinase inhibition assay (Caliper/LabChip EZ Reader); format: biochemical; details: CDK2/Cyclin E1 0.5 nM, ATP 2 mM, 35 min at 27° C.
Procedure: as §1, §2, §3

[5] = tested on: A673 cells; test: Inhibition of proliferation of A673 cells (CyQUANT, 72 hour); format: cell-based, human; details: read-out: Inhibition of Proliferation of A673 Cells (calculated IC50)
Procedure: A673 Cells: A673 cells are a cell line derived from human muscle Ewing's sarcoma. Representative compounds of the invention were tested at different concentrations (from 4 μM to […]; 0.5 log serial dilutions) for their ability to inhibit the proliferation of A673 cells. Known CDK inhibitors dinaciclib or N-((1S,3R)-3-((5-chloro-4-(1H-indol-3-yl)pyrimidin-2-yl)amino)cyclohexyl)-5-((E)-4-(dimethylamino)but-2-enamido)picolinamide and triptolide were used as positive controls. Cells were grown in Dulbecco's Modified Eagle's Medium, +10% FBS+1 mM Sodium Pyruvate. The cells were cultured at 37° C. in a humidified chamber in the presence of 5% CO2. Proliferation assays were conducted over a 72 hour time period. CyQUANT® (Life Technologies, Chicago, Ill. USA) was used to assess the anti-proliferative effects of the compounds following manufacturer's directions and utilizing the reagents supplied with the CyQUANT® kit.

T1 sequence (Q9NYV4 686-1082): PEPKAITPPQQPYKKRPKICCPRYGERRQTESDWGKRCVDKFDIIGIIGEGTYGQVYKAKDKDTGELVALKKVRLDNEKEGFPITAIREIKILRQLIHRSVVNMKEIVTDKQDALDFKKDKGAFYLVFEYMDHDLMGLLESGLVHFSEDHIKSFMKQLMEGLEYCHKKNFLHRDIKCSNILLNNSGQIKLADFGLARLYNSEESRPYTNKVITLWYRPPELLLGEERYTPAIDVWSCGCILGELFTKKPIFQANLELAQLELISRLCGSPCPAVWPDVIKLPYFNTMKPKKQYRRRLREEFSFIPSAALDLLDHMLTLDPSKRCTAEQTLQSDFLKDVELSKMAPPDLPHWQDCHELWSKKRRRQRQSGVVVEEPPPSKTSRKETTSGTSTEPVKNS
T1 sequence (O75909 whole entry partner, the tested form may be a part): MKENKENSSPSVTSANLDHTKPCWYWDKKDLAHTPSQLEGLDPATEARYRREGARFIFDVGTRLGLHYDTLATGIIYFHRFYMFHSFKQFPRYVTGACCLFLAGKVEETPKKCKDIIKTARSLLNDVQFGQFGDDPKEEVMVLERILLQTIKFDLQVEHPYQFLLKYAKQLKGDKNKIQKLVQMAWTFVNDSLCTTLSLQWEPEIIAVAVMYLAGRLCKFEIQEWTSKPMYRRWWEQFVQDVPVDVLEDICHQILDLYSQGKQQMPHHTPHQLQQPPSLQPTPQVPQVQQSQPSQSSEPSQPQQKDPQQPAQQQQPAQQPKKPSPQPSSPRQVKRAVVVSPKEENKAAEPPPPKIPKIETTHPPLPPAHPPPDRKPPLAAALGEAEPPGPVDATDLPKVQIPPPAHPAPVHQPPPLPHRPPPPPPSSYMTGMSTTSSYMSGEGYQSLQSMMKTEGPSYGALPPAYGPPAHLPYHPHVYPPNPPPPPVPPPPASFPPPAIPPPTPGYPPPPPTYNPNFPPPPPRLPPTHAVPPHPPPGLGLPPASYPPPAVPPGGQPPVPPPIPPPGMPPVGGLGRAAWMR
Chain of CDK9/Cyclin T1 complex (P50750 whole entry): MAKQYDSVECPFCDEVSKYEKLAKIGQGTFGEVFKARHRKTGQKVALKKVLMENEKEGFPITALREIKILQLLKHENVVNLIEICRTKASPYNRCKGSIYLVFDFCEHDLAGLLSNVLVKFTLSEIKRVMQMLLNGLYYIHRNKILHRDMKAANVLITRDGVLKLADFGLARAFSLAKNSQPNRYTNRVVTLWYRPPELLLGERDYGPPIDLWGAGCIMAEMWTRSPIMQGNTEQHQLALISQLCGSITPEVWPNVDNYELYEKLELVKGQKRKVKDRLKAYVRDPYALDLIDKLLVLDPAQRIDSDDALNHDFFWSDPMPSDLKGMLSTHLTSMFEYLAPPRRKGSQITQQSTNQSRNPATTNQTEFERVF
Chain of CDK9/Cyclin T1 complex (O60563 whole entry partner): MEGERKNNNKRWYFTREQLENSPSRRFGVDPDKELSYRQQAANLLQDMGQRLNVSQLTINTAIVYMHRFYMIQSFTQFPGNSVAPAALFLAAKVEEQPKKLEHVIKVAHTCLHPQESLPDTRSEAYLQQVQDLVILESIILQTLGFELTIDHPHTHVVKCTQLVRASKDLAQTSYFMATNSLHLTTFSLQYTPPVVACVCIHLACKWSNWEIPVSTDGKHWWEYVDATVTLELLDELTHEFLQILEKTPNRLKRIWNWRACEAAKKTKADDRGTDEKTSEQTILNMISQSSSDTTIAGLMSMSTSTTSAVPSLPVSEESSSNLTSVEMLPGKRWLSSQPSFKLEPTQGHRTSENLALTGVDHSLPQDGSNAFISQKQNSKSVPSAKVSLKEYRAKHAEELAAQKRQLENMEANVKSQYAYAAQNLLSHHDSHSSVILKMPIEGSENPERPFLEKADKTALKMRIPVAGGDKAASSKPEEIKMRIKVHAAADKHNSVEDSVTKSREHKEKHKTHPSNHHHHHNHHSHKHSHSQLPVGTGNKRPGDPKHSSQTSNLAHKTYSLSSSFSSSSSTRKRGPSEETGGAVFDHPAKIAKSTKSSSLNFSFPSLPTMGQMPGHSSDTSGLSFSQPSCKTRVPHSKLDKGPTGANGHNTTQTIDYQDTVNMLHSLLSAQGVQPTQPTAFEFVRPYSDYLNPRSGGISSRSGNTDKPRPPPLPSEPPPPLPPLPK
Chain of CDK7/Cyclin H/MAT1 complex (P50613 whole entry): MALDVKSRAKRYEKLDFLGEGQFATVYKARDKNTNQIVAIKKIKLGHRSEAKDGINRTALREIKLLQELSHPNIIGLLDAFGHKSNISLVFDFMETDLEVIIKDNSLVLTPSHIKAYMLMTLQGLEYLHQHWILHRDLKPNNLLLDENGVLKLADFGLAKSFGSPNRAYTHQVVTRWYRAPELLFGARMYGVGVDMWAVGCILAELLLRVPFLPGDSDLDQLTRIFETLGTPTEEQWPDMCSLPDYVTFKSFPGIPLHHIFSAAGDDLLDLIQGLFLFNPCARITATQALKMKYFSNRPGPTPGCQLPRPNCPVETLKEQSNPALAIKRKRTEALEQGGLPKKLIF
Chain of CDK7/Cyclin H/MAT1 complex (P51946 whole entry partner): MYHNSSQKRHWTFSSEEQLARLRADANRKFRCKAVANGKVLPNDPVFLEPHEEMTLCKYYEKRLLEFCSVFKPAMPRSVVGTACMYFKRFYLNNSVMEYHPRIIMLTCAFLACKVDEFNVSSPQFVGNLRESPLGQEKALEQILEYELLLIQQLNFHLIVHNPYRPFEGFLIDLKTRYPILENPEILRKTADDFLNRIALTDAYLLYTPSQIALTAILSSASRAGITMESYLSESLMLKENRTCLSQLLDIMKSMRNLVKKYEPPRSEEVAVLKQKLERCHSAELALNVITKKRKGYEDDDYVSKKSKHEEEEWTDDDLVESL
Chain of CDK7/Cyclin H/MAT1 complex (P51948 whole entry partner): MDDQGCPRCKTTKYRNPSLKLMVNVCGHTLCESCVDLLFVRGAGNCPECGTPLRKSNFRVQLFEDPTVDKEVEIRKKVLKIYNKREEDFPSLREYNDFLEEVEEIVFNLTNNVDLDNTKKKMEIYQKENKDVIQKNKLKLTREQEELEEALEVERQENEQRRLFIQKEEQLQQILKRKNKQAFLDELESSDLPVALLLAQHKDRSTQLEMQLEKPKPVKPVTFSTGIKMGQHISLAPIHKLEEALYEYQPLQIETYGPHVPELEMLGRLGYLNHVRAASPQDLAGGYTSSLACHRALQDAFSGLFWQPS

SMILES	pIC50 [1]	pIC50 [2]	pIC50 [3]	pIC50 [4]	pIC50 [5]
CC1CNCC(Nc2ncc(Cl)c(-c3c[nH]c4ccccc34)n2)C1 (stereo not shown) [Compound 182]	6.70 to 7.70	5.30 to 6.70	5.30 to 6.70	≤ 5.30	6.70 to 7.70
CCOP(=O)(OCC)c1ccc2[nH]cc(-c3nc(NC4CCCNC4)ncc3C(F)(F)F)c2c1 (stereo not shown) [Compound 183]	6.70 to 7.70	5.30 to 6.70	≤ 5.30	5.30 to 6.70	5.30 to 6.70
CCOP(=O)(OCC)c1ccc2c(-c3nc(NC4CCCNC4)ncc3C(F)(F)F)c[nH]c2c1 (stereo not shown) [Compound 187]	6.70 to 7.70	≤ 5.30	5.30 to 6.70	≤ 5.30	6.70 to 7.70
COc1cnc(N[C@H]2CCCNC2)nc1-c1c[nH]c2ccccc12 [Compound 189]	5.30 to 6.70	≤ 5.30	≤ 5.30	≤ 5.30	5.30 to 6.70
C#Cc1cnc(N[C@H]2CCCNC2)nc1-c1cn(C)c2ccccc12 [Compound 195]	5.30 to 6.70	≤ 5.30	≤ 5.30	≤ 5.30	6.70 to 7.70
FCCc1cnc(NC2CCCNC2)nc1-c1c[nH]c2ccccc12 (stereo not shown) [Compound 206]	6.70 to 7.70	5.30 to 6.70	5.30 to 6.70	≤ 5.30	5.30 to 6.70
CC(=O)c1cnc(NC2CCCNC2)nc1-c1c[nH]c2ccccc12 (stereo not shown) [Compound 208]	6.70 to 7.70	≤ 5.30	5.30 to 6.70	≤ 5.30	6.70 to 7.70
CC1(C)CCNC[C@@H]1Nc1ncc(C(F)(F)F)c(-c2c[nH]c3ccccc23)n1 [Compound 209]	5.30 to 6.70	≤ 5.30	≤ 5.30	≤ 5.30	6.70 to 7.70
CC1(C)CCNC[C@H]1Nc1ncc(C(F)(F)F)c(-c2c[nH]c3ccccc23)n1 [Compound 210]	5.30 to 6.70	≤ 5.30	≤ 5.30	≤ 5.30	5.30 to 6.70
CCC1CCC(Nc2ncc(C(F)(F)F)c(-c3c[nH]c4ccccc34)n2)CN1 (stereo not shown) [Compound 211]	6.70 to 7.70	5.30 to 6.70	5.30 to 6.70	5.30 to 6.70	6.70 to 7.70
FC(F)(F)c1cnc(NC2CCC3(CC3)NC2)nc1-c1c[nH]c2ccccc12 (stereo not shown) [Compound 212]	> 7.70	5.30 to 6.70	5.30 to 6.70	5.30 to 6.70	> 7.70
FC(F)(F)c1cnc(NC2CCCNC2)nc1-c1c[nH]c2cc(N3CCCC3)ccc12 (stereo not shown) [Compound 213]	6.70 to 7.70	≤ 5.30	5.30 to 6.70	≤ 5.30	6.70 to 7.70
CC(C)(O)Cn1cc(-c2ccc3c(-c4nc(N[C@H]5CCCNC5)ncc4C(F)(F)F)c[nH]c3c2)cn1 [Compound 214]	6.70 to 7.70	5.30 to 6.70	5.30 to 6.70	5.30 to 6.70	6.70 to 7.70
FC(F)(F)c1cnc(N[C@@H]2CNCc3ccccc32)nc1-c1c[nH]c2ccccc12 [Compound 215]	6.70 to 7.70	≤ 5.30	≤ 5.30	≤ 5.30	5.30 to 6.70
FC(F)(F)c1cnc(NC2CNCc3ccccc32)nc1-c1c[nH]c2ccccc12 (stereo not shown) [Compound 216]	5.30 to 6.70	≤ 5.30	≤ 5.30	5.30 to 6.70	5.30 to 6.70
CCC1CCC(Nc2ncc(C(F)(F)F)c(-c3c[nH]c4ccccc34)n2)CN1 (stereo not shown) [Compound 217]	> 7.70	5.30 to 6.70	5.30 to 6.70	5.30 to 6.70	6.70 to 7.70
C=Cc1cnc(NC2CCCNC2)nc1-c1c[nH]c2ccccc12 (stereo not shown) [Compound 218]	> 7.70	5.30 to 6.70	5.30 to 6.70	5.30 to 6.70	6.70 to 7.70
CS(=O)(=O)Cc1ccc2c(-c3nc(NC4CCCNC4)ncc3C(F)(F)F)c[nH]c2c1 (stereo not shown) [Compound 219]	> 7.70	5.30 to 6.70	5.30 to 6.70	5.30 to 6.70	6.70 to 7.70
FC(F)(F)c1cnc(NC2CCCNC2)nc1-c1c[nH]c2cc(-c3cccnc3)ccc12 (stereo not shown) [Compound 223]	> 7.70	5.30 to 6.70	5.30 to 6.70	5.30 to 6.70	6.70 to 7.70
FC(F)(F)c1cnc(N[C@H]2CCCNC2)nc1-c1c[nH]c2cc(-c3ccncc3)ccc12 [Compound 224]	> 7.70	5.30 to 6.70	5.30 to 6.70	5.30 to 6.70	6.70 to 7.70

Continued, in another order:

pIC50 [1]	pIC50 [2]	pIC50 [3]	pIC50 [4]	SMILES	pIC50 [5]
> 7.70	6.70 to 7.70	6.70 to 7.70	6.70 to 7.70	Fc1cc2[nH]cc(-c3nc(NC4CCCNC4)ncc3C(F)(F)F)c2cc1F (stereo not shown) [Compound 184]	> 7.70
> 7.70	5.30 to 6.70	5.30 to 6.70	5.30 to 6.70	CNC(=O)c1ccc2c(-c3nc(NC4CCCNC4)ncc3C(F)(F)F)c[nH]c2c1 (stereo not shown) [Compound 186]	6.70 to 7.70
> 7.70	5.30 to 6.70	5.30 to 6.70	5.30 to 6.70	FC(F)(F)c1cnc(NC2CCCNC2)nc1-c1c[nH]c2cc(-c3cn[nH]c3)ccc12 (stereo not shown) [Compound 188]	6.70 to 7.70
> 7.70	5.30 to 6.70	5.30 to 6.70	5.30 to 6.70	CC(C)(O)CCc1cccc2c(-c3nc(NC4CCCNC4)ncc3C(F)(F)F)c[nH]c12 (stereo not shown) [Compound 191]	> 7.70
> 7.70	5.30 to 6.70	5.30 to 6.70	5.30 to 6.70	C#Cc1cnc(NC2CCCNC2)nc1-c1c[nH]c2ccccc12 (stereo not shown) [Compound 194]	> 7.70
> 7.70	5.30 to 6.70	5.30 to 6.70	5.30 to 6.70	O=S1(=O)CCN(c2cccc3c(-c4nc(NC5CCCNC5)ncc4Cl)c[nH]c23)CC1 (stereo not shown) [Compound 196]	6.70 to 7.70
> 7.70	5.30 to 6.70	5.30 to 6.70	5.30 to 6.70	N#Cc1cc2[nH]cc(-c3nc(NC4CCCNC4)ncc3C(F)(F)F)c2cc1F (stereo not shown) [Compound 197]	> 7.70
> 7.70	5.30 to 6.70	5.30 to 6.70	5.30 to 6.70	OC1CC=C(c2cccc3c(-c4nc(NC5CCCNC5)ncc4C(F)(F)F)c[nH]c23)CC1 (stereo not shown) [Compound 198]	> 7.70
> 7.70	5.30 to 6.70	5.30 to 6.70	5.30 to 6.70	CNS(=O)(=O)c1ccc2c(-c3nc(N[C@H]4CCCNC4)ncc3C(F)(F)F)c[nH]c2c1 [Compound 200]	6.70 to 7.70
> 7.70	5.30 to 6.70	6.70 to 7.70	5.30 to 6.70	CC1CNCC(Nc2ncc(Cl)c(-c3c[nH]c4ccccc34)n2)C1 (stereo not shown) [Compound 201]	> 7.70
> 7.70	5.30 to 6.70	≤ 5.30	5.30 to 6.70	FC(F)(F)c1cnc(NC2CCCNC2)nc1-c1c[nH]c2cc(-c3ncc[nH]3)ccc12 (stereo not shown) [Compound 202]	6.70 to 7.70
> 7.70	5.30 to 6.70	5.30 to 6.70	5.30 to 6.70	OC1CNCC(Nc2ncc(C(F)(F)F)c(-c3c[nH]c4ccccc34)n2)C1 (stereo not shown) [Compound 203]	> 7.70
> 7.70	≤ 5.30	5.30 to 6.70	≤ 5.30	O=C(c1ccc2c(-c3nc(NC4CCCNC4)ncc3C(F)(F)F)c[nH]c2c1)N1CCC(O)C1 (stereo not shown) [Compound 204]	5.30 to 6.70
> 7.70	≤ 5.30	5.30 to 6.70	≤ 5.30	O=C(c1ccc2c(-c3nc(N[C@H]4CCCNC4)ncc3C(F)(F)F)c[nH]c2c1)N1CC[C@@H](O)C1 [Compound 205]	5.30 to 6.70
> 7.70	5.30 to 6.70	5.30 to 6.70	5.30 to 6.70	OC1CCC(c2cccc3c(-c4nc(NC5CCCNC5)ncc4C(F)(F)F)c[nH]c23)CC1 (stereo not shown) [Compound 207]	> 7.70
